Source: patent US20220154153A1, “NEW INHIBITORS OF LRRK2/PP1 INTERACTION” (Université de Paris, priority 2019, published 2022)
“Also recorded” adds a separate entry of the source.

Tests used:
[1] = tested on: MDA-MB231 cells; assay: Detection of apoptosis by Annexin-V-FITC staining in cancer cells; format: cell-based, human; conditions: 25 μM peptide, 24 h of treatment
Experimental: Detection of Apoptosis by Annexin-V-FITC Staining
Apoptosis was determined using Annexin-V FITC (eBiosciences) as described by the manufacturer. Briefly, cells were washed in 1× binding buffer, centrifuged and resuspended in 100 μl of 1× binding buffer containing Annexin-V FITC and propidium iodide. After incubation for 15 min, cells were analyzed by flow cytometry. Data acquired by FACS Canto were analyzed with Diva 60 software. Each condition was analyzed in triplicate. The effect of peptide treatment was compared to untreated control cells.

[2] = tested on: LRRK2/PP1 interaction; assay: In vitro competition assay of LRRK2/PP1 interaction (LRRK2 immunoprecipitates from MDA-MB231 lysates, anti-PP1 Western blot); format: binding, human; conditions: 1 mM peptide, 30 min, room temperature; compared with non-competed immunoprecipitates
Experimental: In Vitro Protein/Protein Interaction Competition
The PP1/LRRK2 interaction was competed using the peptides of the invention. Lysates from MDA-MB231 cells were immunoprecipitated with anti-LRRK2 antibody (overnight, 4° C.) and protein A/G Sepharose was added for 1 h at 4° C. The PP1/LRRK2 interaction was competed with 1 mM of the peptide for 30 min at room temperature. After several washing steps, immunoprecipitates were transferred to nitrocellulose and blotted with anti PP1 antibody (Santa Cruz Biotechnology). As internal control, the blot was also blotted with anti-LRRK2 antibody (Invitrogene).
Immunoprecipitation and Western Blotting
Cells (5×10^6) were lysed for 20 min at 4° C. in lysis buffer (50 mM Tris pH8, 1% NP40, 137 mM NaCl, 1 mM MgCl2, 1 mM CaCl2), 10% glycerol and protease inhibitor mixture). Lysates (500 μg) were immunoprecipitated with the appropriated antibody overnight at 4° C. and protein A/G sepharose was added for 1 h at 4° C. After washing with 1×TBST (20 mM Tris HCl pH7.5, 150 mM NaCl, 0.05% Tween 20) immunoprecipitates were separated by SDS-PAGE, transferred to nitrocellulose, blocked (5% non-fat dry milk in TBST) and incubated with the primary antibody (Santa Cruz Biotehnology). The membrane was washed and incubated with PO-conjugates secondary antibody (Dako). Protein detection was performed using the ECL system.

[3] = tested on: PBMC from CLL patients; assay: Internalization of FITC-labelled peptides in PBMC from chronic lymphocytic leukemia (CLL) patients (FACS); format: cell-based, human; conditions: 4 h, 37° C.; for FITC labelled cells detected (FACS): PBMC of CLL, 50 μM FITC labelled peptide
Experimental: (§1) Isolation and Culture of Primary Cells
(§2) Fresh blood from healthy donors (HD) was obtained from Etablissement Francais du Sang. Chronic lymphocytic leukemia (CLL) patient samples were obtained from the Department of Hematology. Peripheral blood mononuclear cells (PBMC) from HD and CLL patients were prepared by Ficoll gradient centrifugation. Cells were maintained in RPMI 1640 supplemented with 10% of FCS, 1% non-essential amino acids, 1% Hepes, 1% sodium pyruvate and 1% glutamine. All the experimental protocols as well as the human blood samples isolation were approved by the Ethical Committee of the Hospital in accordance with the National Guide of the Ministry of Health.
(§3) In addition to cell lines, the internalization of the new peptides according to the invention was further tested in peripheral blood mononuclear cells (PBMC) from healthy donors and chronic lymphocytic leukemia (CLL) patients. PBMC from both were incubated with 50 μM of both peptides for 4 h at 37° C.

[4] = tested on: MDA-MB231 cells; assay: Internalization of FITC-labelled peptides in MDA-MB231 cell line (FACS); format: cell-based, human; conditions: different concentrations, 4 h, compared to peptide 13
Experimental: Quantification of Cellular Internalization
Human cell line MDA-MB231 was seeded in 24 well plate (1×10^5 cells/well) and treated with different concentrations of FITC-labelled peptides for different periods of time. After treatment, cells were harvested and washed twice with PBS to remove the extracellular unbound peptide and resuspended in 200 μl of PBS. FITC fluorescence intensity of internalized peptides was measured by flow cytometry. Untreated cells were used as control.

[5] = tested on: PBMC from healthy donors; assay: Internalization of FITC-labelled peptides in PBMC from healthy donors (FACS); format: cell-based, human; conditions: 4 h, 37° C.; for FITC labelled cells detected (FACS): PBMC of healthy human, 50 μM FITC labelled peptide
Experimental: as §1, §2, §3

Sequence	Apoptosis induction (Annexin-V) [1]	PP1 detected in LRRK2 immunoprecipitates after competition with peptide (Western blot) [2]	Fluorescence intensity of internalization compared with peptide 13 ([3]; CLL patients PBMC, 50 μM)	FITC labelled cells detected (FACS) [3]	Fluorescence intensity of internalization (FACS) [4]	FITC labelled cells detected (FACS) [5]	Fluorescence intensity of internalization compared with peptide 13 ([5]; healthy donors PBMC, 50 μM)
VKKKKIKAEIKI (Synthetic construct vectorization (or carrier) peptide disclosed in WO/2016/156536) [shuttle, optimized cell penetrating peptide used alone as control, reference compound]	do not show apoptosis	PP1 is detected; also recorded: no difference	–	–	–	–	–
VKKKKIKAEIKIGFWSRLINRLLEI (Synthetic construct Seq_29 fused to seq_8) [peptide 14]	strong level of apoptosis	important decrease in PP1 detected	slightly higher fluorescence intensity	majority of FITC labelled cells is detected	higher	majority of FITC labelled cells is detected	slightly higher fluorescence intensity
VKKKKIKAEIKIPMGFWSRLINRLLEISPY (Synthetic construct Seq_29 fused to seq_7) [peptide 13]	strong level of apoptosis	low detected; also recorded: important decrease in PP1 detected	–	majority of FITC labelled cells is detected	–	majority of FITC labelled cells is detected	–
